Measured values: publication PMC6437697 (Journal of Medicinal Chemistry, 2019)

Legend:
Assay in all cases: KINOMEscan
Format in all cases: binding
Conditions in all cases: read-out: % control activity remaining
NEK6 = biological target: T1, NEK6 (Homo sapiens, UniProt Q9HC98)
T1 construct: purchased Eurofins DiscoverX KINOMEscan

MST1 = biological target: T2, MST1 (Homo sapiens, UniProt Q13043)
T2 construct: purchased Eurofins DiscoverX KINOMEscan
T2 sequence (Q13043 1-487): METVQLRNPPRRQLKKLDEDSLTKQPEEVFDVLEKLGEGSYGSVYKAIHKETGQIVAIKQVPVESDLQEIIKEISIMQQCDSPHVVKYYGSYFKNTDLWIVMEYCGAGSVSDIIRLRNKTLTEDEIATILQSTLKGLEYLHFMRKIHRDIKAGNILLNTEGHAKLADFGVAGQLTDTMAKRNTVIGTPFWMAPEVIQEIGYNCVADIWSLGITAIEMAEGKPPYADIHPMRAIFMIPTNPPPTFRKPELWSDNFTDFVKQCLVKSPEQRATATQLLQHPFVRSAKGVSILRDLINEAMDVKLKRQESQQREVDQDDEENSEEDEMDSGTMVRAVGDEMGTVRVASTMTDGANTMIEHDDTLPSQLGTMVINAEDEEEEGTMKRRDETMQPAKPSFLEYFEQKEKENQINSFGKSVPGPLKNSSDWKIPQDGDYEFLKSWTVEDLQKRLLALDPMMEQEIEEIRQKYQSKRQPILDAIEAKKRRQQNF

[1] = biological target: T3, RSK3(Kin.Dom.1-N-terminal) (Homo sapiens, UniProt Q15349)
T3 construct: RSK3(Kin.Dom.1-N-terminal); purchased Eurofins DiscoverX KINOMEscan
T3 sequence (Q15349 59-318 limits assumed): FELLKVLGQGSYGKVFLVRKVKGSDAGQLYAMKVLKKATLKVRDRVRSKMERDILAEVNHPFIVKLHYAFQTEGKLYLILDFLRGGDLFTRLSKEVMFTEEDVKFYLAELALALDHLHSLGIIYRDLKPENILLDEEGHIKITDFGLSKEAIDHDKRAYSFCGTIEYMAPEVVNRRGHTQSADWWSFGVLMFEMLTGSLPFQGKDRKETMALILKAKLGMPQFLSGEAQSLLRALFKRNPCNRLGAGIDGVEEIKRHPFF

CASK = biological target: T4, CASK (Homo sapiens, UniProt O14936)
T4 construct: purchased Eurofins DiscoverX KINOMEscan
T4 sequence (O14936 1-926): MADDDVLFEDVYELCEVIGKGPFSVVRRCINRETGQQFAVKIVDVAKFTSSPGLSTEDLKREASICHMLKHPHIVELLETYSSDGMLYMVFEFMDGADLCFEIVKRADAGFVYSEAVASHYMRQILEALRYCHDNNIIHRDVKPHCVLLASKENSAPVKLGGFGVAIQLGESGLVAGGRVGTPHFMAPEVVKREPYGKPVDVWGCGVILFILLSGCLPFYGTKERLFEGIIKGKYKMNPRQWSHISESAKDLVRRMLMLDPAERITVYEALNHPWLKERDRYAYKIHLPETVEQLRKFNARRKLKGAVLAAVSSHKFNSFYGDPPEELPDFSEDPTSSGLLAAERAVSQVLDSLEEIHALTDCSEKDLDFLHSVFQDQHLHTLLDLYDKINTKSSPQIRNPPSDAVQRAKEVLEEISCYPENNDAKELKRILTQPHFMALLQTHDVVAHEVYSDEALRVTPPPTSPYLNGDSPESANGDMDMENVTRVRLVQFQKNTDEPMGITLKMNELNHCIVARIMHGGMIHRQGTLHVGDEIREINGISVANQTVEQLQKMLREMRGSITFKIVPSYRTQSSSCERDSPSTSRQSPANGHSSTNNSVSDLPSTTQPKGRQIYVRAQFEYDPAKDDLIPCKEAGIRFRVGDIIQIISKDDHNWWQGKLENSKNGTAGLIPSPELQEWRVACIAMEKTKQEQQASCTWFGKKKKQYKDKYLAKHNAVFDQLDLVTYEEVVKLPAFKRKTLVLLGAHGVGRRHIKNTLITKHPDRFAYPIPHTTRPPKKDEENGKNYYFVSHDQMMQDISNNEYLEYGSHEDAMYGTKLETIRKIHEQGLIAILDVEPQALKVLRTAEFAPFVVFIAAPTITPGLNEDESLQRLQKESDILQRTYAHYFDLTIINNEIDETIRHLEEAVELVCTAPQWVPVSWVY

MUSK = biological target: T5, MUSK (Homo sapiens, UniProt O15146)
T5 construct: purchased Eurofins DiscoverX KINOMEscan
T5 sequence (O15146 24-869): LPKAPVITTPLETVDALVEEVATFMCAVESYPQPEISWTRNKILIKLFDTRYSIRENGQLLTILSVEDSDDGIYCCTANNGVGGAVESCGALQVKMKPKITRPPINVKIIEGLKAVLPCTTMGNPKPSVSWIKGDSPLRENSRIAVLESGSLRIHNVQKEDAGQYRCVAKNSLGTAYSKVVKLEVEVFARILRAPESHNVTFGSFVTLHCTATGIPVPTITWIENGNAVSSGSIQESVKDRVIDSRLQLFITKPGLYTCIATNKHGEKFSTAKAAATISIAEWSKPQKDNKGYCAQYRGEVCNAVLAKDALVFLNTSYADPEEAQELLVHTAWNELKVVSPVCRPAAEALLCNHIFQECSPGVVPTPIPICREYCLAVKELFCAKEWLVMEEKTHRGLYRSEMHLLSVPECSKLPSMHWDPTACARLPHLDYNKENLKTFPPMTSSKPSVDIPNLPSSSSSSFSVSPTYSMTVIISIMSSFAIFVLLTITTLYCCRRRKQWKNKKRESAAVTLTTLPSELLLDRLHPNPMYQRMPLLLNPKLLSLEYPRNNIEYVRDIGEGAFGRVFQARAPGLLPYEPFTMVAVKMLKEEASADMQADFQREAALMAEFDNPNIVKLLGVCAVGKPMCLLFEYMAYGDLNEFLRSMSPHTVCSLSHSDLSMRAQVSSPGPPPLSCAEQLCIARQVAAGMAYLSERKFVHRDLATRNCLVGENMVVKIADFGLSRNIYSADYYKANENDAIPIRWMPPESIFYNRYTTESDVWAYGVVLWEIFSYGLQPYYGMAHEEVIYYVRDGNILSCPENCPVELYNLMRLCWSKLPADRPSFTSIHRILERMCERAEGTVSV

EGFR(L858R) = biological target: T6, EGFR(L858R) (Homo sapiens, UniProt P00533, L858R)
T6 construct: purchased Eurofins DiscoverX KINOMEscan

[2] = biological target: T7, RPS6KA4(Kin.Dom.2-C-terminal) (Homo sapiens, UniProt O75676)
T7 construct: RPS6KA4(Kin.Dom.2-C-terminal); purchased Eurofins DiscoverX KINOMEscan
T7 sequence (O75676 411-674 limits assumed): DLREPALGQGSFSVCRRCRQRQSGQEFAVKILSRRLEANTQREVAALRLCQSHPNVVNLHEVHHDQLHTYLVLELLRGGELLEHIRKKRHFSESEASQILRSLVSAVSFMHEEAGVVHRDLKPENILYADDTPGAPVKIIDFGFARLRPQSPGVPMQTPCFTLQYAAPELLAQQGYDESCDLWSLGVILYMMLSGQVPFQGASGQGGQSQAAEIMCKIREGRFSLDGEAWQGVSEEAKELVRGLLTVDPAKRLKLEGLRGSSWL

OSR1 = biological target: T8, OSR1 (Homo sapiens, UniProt O95747)
T8 construct: purchased Eurofins DiscoverX KINOMEscan
T8 sequence (O95747 whole entry): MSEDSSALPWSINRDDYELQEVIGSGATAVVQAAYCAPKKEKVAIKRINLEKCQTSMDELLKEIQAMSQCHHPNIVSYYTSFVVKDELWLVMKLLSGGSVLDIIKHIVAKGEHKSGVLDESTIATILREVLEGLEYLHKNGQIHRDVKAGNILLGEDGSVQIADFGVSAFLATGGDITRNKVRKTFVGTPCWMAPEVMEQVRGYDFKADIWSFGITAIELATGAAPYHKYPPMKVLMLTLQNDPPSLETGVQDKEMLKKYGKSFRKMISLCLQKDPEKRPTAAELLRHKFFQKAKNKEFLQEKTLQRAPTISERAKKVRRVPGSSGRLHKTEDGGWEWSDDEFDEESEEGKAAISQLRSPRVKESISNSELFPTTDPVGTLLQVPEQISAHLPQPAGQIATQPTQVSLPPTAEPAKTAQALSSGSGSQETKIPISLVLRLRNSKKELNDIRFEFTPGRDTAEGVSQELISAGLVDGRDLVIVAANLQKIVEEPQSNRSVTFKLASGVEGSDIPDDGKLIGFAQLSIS

ERK4 = biological target: T9, ERK4 (Homo sapiens, UniProt P31152)
T9 construct: purchased Eurofins DiscoverX KINOMEscan
T9 sequence (P31152 whole entry): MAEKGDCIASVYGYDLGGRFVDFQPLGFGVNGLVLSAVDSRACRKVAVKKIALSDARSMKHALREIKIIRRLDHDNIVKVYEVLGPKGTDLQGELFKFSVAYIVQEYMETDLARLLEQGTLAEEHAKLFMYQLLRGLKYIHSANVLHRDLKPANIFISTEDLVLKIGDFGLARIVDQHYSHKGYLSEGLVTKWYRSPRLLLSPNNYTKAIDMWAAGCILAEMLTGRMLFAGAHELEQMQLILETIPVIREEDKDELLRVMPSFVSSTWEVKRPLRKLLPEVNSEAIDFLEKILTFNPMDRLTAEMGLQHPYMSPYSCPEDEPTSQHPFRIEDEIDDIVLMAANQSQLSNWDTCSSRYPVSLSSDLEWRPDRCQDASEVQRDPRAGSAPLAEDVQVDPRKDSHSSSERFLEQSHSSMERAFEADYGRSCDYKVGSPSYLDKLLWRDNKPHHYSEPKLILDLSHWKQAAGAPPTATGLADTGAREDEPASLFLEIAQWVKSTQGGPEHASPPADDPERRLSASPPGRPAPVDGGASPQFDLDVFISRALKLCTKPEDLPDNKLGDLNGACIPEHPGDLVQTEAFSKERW

PCTK1 = biological target: T10, PCTK1 (Homo sapiens, UniProt Q00536)
T10 construct: purchased Eurofins DiscoverX KINOMEscan
T10 sequence (Q00536 whole entry): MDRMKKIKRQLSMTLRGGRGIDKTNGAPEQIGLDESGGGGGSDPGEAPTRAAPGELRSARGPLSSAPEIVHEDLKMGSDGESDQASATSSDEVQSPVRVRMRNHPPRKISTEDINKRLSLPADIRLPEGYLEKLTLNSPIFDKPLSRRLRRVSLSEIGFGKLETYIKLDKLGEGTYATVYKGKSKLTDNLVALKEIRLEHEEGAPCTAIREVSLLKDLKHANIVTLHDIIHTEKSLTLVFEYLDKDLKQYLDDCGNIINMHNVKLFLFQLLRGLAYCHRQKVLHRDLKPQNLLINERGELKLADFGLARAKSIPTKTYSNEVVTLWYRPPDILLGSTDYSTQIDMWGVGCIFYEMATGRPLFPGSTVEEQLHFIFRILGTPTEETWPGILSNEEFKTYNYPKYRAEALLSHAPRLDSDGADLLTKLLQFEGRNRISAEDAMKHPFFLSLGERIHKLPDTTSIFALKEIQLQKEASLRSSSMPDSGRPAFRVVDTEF

PIP5K1A = biological target: T11, PIP5K1A (Homo sapiens, UniProt Q99755)
T11 construct: purchased Eurofins DiscoverX KINOMEscan
T11 sequence (Q99755 whole entry): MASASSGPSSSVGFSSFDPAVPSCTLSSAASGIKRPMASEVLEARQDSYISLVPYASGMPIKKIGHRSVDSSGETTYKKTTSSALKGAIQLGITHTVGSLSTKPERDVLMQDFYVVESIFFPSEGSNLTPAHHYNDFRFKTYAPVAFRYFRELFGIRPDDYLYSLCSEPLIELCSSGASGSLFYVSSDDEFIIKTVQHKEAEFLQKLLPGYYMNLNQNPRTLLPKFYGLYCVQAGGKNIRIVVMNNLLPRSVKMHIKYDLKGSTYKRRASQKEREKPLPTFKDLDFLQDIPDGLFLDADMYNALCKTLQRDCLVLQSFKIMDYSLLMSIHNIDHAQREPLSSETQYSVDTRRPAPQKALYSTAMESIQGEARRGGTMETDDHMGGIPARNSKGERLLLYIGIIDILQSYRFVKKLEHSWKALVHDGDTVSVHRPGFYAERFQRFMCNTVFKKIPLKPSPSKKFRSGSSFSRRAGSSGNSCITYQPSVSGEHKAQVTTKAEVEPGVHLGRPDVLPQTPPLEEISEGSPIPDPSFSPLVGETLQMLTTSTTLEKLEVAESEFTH

YANK3 = biological target: T12, YANK3 (Homo sapiens, UniProt Q86UX6)
T12 construct: purchased Eurofins DiscoverX KINOMEscan
T12 sequence (Q86UX6 whole entry): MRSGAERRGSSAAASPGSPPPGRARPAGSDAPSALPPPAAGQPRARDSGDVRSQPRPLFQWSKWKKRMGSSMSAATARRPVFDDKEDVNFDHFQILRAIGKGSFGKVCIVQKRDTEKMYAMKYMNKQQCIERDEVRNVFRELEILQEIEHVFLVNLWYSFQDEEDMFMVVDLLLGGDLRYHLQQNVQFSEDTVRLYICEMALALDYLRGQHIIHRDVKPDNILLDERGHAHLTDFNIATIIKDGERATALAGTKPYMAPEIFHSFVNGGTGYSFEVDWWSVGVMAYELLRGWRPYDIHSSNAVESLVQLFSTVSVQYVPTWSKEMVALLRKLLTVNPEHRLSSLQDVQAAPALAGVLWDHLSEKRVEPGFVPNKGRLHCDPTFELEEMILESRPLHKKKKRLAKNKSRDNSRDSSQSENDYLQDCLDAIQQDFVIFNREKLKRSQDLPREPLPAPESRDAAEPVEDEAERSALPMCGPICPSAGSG

CAMKK1 = biological target: T13, CAMKK1 (Homo sapiens, UniProt Q8N5S9)
T13 construct: purchased Eurofins DiscoverX KINOMEscan
T13 sequence (Q8N5S9 whole entry): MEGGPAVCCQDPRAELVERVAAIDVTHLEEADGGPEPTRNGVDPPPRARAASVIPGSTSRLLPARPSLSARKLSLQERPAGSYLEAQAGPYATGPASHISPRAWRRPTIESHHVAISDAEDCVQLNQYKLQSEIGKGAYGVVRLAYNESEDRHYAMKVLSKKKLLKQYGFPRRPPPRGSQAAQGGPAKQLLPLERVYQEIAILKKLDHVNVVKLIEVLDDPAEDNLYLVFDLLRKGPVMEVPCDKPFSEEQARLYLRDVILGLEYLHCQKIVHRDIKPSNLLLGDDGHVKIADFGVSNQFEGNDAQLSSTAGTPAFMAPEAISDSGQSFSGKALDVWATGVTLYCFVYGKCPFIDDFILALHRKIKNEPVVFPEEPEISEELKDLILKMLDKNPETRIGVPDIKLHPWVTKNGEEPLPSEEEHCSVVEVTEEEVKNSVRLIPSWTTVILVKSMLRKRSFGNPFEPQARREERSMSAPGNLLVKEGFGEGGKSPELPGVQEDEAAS

T1 sequence (Q9HC98 whole entry): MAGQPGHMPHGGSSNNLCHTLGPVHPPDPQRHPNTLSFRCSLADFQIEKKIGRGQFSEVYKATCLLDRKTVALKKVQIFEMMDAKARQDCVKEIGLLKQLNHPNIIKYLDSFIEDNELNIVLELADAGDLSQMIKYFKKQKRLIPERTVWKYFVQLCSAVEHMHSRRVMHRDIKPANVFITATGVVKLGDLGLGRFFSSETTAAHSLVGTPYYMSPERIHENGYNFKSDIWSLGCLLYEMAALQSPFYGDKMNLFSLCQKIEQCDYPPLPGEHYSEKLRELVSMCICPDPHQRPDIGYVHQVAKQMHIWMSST

Compound	remaining binding at 1 µM (NEK6) [%]	remaining binding at 1 µM (MST1) [%]	remaining binding at 1 µM [1] [%]	remaining binding at 1 µM (CASK) [%]	remaining binding at 1 µM (MUSK) [%]	remaining binding at 1 µM (EGFR(L858R)) [%]	remaining binding at 1 µM [2] [%]	remaining binding at 1 µM (OSR1) [%]	remaining binding at 1 µM (ERK4) [%]	remaining binding at 1 µM (PCTK1) [%]	remaining binding at 1 µM (PIP5K1A) [%]	remaining binding at 1 µM (YANK3) [%]	remaining binding at 1 µM (CAMKK1) [%]
Clc1cc(NCC2CC2)c2ncc(-c3ccc4[nH]ncc4c3)n2n1 [compound 2, 6-Chloro-N-(cyclopropylmethyl)-3-(1H-indazol-5-yl)imidazo[1,2-b]pyridazin-8-amine]	99	100	82	87	72	68	87	79	100	97	100	100	94
O=C(CN1CCOCC1)N[C@H]1CC[C@H](Nc2cc(Cl)nn3c(-c4ccc5[nH]ncc5c4)cnc23)CC1 [compound 26]	100	100	52	59	42	83	81	99	99	87	80	99	52
CN1CCC(CNc2cc(Cl)nn3c(-c4cc5nc(Nc6ccccc6)[nH]c5cc4F)cnc23)CC1 [compound 31, 6-Chloro-3-(6-fluoro-2-(phenylamino)-1H-benzo[d]imidazol-5-yl)-N-((1-methylpiperidin-4-yl)methyl)imidazo[1,2-b]pyridazin-8-amine]	96	95	78	100	40	100	86	100	93	37	91	73	98
